Peptide text beside a SMILES is read from it. * marks the point of attachment. Cbz = O=C(OCc1ccccc1)*; CH2F = FC*
Assays:
SKOV3 cells = experiment: MTT assay with 4-HPR; format: cell-based, human; settings: 500 nM 4-HPR; MTT 96 h
Experimental: FIG. 35. Effect of transduction by Ad.mda-7 on the growth of the ovarian cancer cell line SKOV3 in the presence or absence of N-(4-hydroxyphenyl) retinamide (4-HPR).
SKOV3 cells (ATCC, Manassas Va.) were plated at 10,000 per well in 24 well plates. 24 h after plating cells were infected with either control virus or Ad.mda-7 virus at increasing multiplicities of viral infection. 24 h after infection, cells were treated with 500 nM 4-HPR. 96 h after 4-HPR addition, cell numbers were determined using MTT assays as described above.

[1] = test system: prostate carcinoma cell lines (DU-145, PC-3, LNCaP); experiment: MTT viability assay; format: cell-based, human
Experimental: (§1) Cells were seeded in 96-well plates, pretreated with NAC (5 mM) or Tiron (1 mM) for 2 h and infected with Ad.mda-7. Forty eight hours later, viability was assessed by MTT assay. […] Cells were seeded in 96-well plates, infected with Ad.mda-7 and treated with As2O3 (10 μM) or NSC656240 (400 nM). Forty eight h later, viability was assessed by MTT assay. Panel C. […] After treatment, cells were stained using DCF-DA and analyzed using flow cytometry. […] After treatment, cells were washed and stained with Annexin V-FITC conjugate. Late apoptotic and necrotic cells were excluded using PI staining. Results are the mean of three independent experiments performed with triplicate samples±S.E.
[…] Cellular viability was assessed by MTT assay 48 h after infection (Panel A). Mitochondrial membrane potential (DiOC6(3) staining, Panel B) and apoptotic changes (Annexin V staining, Panel C) were assessed 18 h (LNCaP cells) and 24 h (DU-145, PC-3 and P69 cells) after infection.
MTT Viability Assays. This method was performed as described (Lebedeva et al., 2000, Cancer Research 60:6052-6060). […] At the indicated time points, medium was removed, and fresh medium containing 0.5 mg/ml MTT was added to each well. The cells were incubated at 37° C. for 4 h and then an equal volume of solubilization solution (0.01N HCl in 10% SDS) was added to each well and mixed thoroughly. The optical density from the plates was read on a BioRad Microplate Reader Model 550 at 595 nm.

[2] = test system: prostate cancer cell lines (DU-145, PC-3, LNCaP); experiment: Mitochondrial ΔΨm (DiOC6(3)) and ROS time course; format: cell-based, human; settings: CsA, BA pretreatment; 18 h (LNCaP), 24 h (DU-145, PC-3)
Experimental: (§2) FIG. 33A-C. […] Prostate cancer and normal immortalized P69 cells were pretreated with inhibitors of MPT CsA (100 nM) or BA (50 μM), with the enhancer of MPT PK11195 (50 μM) or with the pan-caspase inhibitor z-VAD.fmk (50 μM) for 2 h following infection with Ad.vec or Ad.mda-7. Cellular viability was assessed by MTT assay 48 h after infection (Panel A). Mitochondrial membrane potential (DiOC6(3) staining, Panel B) and apoptotic changes (Annexin V staining, Panel C) were assessed 18 h (LNCaP cells) and 24 h (DU-145, PC-3 and P69 cells) after infection.

[3] = test system: pancreatic cancer cell lines; experiment: Western blotting of K-ras and MDA-7 protein; format: cell-based, human
Excerpt: FIG. 43. MDA-7 expression in pancreatic cancer cell lines in the presence or absence of Ad.mda-7, Ad.K-rasAS, or NSC656243. The presence of MDA-7 in mutant K-ras cell lines requires expression of both mda-7 and the antisense K-ras construct, and is potentiated by NSC656243.
FIG. 45. The MDA-7 expression observed in the PANC-1 or BxPC-3 cell lines following administration of Ad.mda-7 in combination with either NSC656240 or Ar2O3 is abrogated by NAC administration.
Preparation of Cell Extracts and Western Blotting Analysis. Cells were washed 2× with cold PBS and lysed on ice for 30 min in […] of cold RIPA buffer [50 mM Tris-HCl (pH 8.0), 150 mM NaCl, 0.1% SDS, 1% NP40, and 0.5% sodium deoxycholate] with freshly added 0.1 mg/ml phenylmethylsulfonyl fluoride, 1 mM sodium orthovanadate, and 1 mg/ml aprotinin. After cell debris were removed by centrifugation at 14,000 g for 10 min at 4° C., protein concentrations were determined using the Bio-Rad protein assay system (Bio-Rad Laboratories, Richmond, Calif.). Aliquots of cell extracts containing […] of total protein were resolved in 12% SDS-PAGE and transferred to Immobilon-P PVDF membranes (Millipore Corp., Bedford, Mass.). Filters were blocked for 1 h at room temperature in Blotto A [5% nonfat milk powder in TBS-T: 10 mM Tris-HCl (pH 8.0), 150 mM NaCl, 0.05% Tween 20], and then incubated for 1 h at room temperature in Blotto A containing a 1:1000 dilution of rabbit anti MDA-7 polyclonal antibody. After washing in TBS-T buffer (3×5 min, RT), filters were incubated for 1 h at room temperature in Blotto A containing a 1:10,000 dilution of peroxidase conjugated anti-rabbit secondary antibody (Amersham, Arlington Heights, Ill.). After washing in TBS-T, ECL was performed according to the manufacturer's recommendation.

[4] = test system: pancreatic carcinoma cells; experiment: MTT viability assay; format: cell-based, human; settings: Ad.mda-7 100 p.f.u./cell
Experimental: (§3) MTT Viability Assays. Cell viability was assessed by MTT assays as described (Lebedeva et al., 2000, Cancer Research 60:6052-6060). Briefly, cells were seeded in 96-well tissue culture plates (1.5×10^3 cells per well) and treated with various agents. At the indicated times, medium was removed, and fresh medium containing 0.5 mg/ml MTT was added to each well. The cells were incubated at 37° C. for 4 h and then an equal volume of solubilization solution (0.01N HCl in 10% SDS) was added to each well and mixed thoroughly. The optical density from the plates was read on a BioRad Microplate Reader Model 550 at 595 nm.

[5] = test system: pancreatic carcinoma cells; experiment: Apoptosis (annexin V exposure, hypodiploid A0 cells); format: cell-based, human; settings: annexin V exposure and A0 population
Excerpt: FIG. 39. Combined treatment of pancreatic carcinoma cells by NSC656240 and Ad.mda-7 increases levels of annexin V in pancreatic cancer cells irrespective of K-ras status.
FIG. 40. NAC administration prevents the apoptosis of pancreatic cancer cells induced by treatment of pancreatic carcinoma cells by NSC656240 or Ar2O3 and Ad.mda-7.
FIG. 41. Combined treatment of pancreatic carcinoma cells by NSC656240 or Ar2O3 and Ad.mda-7 causes apoptosis irrespective of K-ras status.
Annexin V Binding Assays. Cells were trypsinized, washed once with complete medium and stained with FITC-labeled Annexin-V (kit from Oncogene Research Products, Boston, Mass.) according to the manufacturer's instructions. Flow cytometry was performed immediately after staining.
Cell Cycle Analysis. Cells were trypsinized, washed 2× with PBS and fixed in 70% ethanol overnight at −20° C. Then cells were washed 2 times with PBS, and aliquots of 1×10^6 cells were resuspended in 1 ml of PBS containing 1 mg/ml of RNase A and 0.5 mg/ml of propidium iodide. After 30 min incubation, cells were analyzed by flow cytometry using a FACScan flow cytometer (Becton Dickinson, San Jose, Calif.).

[6] = test system: normal cells (immortalized human astrocytes or melanocytes); experiment: MTT viability assay; format: cell-based; settings: Ad.mda-7 100 p.f.u./cell
Experimental: as §3

[7] = test system: pancreatic carcinoma cells; experiment: ROS production (flow cytometry); format: cell-based, human
Experimental: FIG. 46. Combined treatment by NSC656240 or Ar2O3 and Ad.mda-7 causes overproduction of ROS in pancreatic carcinoma cells.
Assessment of ROS Production. To determine ROS production, cells were stained with 2.5 μM HE or 5 μM DCFH-DA in PBS for 30 min at 37° C. in the dark. Immediately after staining, cells were analyzed by flow cytometry (FACSscan, Becton-Dickinson, Mountain View, Calif.), and data were analyzed using CellQuest software, version 3.1 (Becton Dickinson). For inhibition experiments, NAC (Sigma) was added 2 h prior to infection with Ad.mda-7. In all cases, cells were gated to exclude cell debris.

[8] = test system: pancreatic cancer cells stably transformed to express MDA-7; experiment: Apoptosis and cell death in cells stably expressing MDA-7; format: cell-based, human
Excerpt: FIG. 49. Induction of apoptosis in pancreatic cancer cell lines (PANC-1) stably expressing MDA-7.
FIG. 50. Induction of apoptosis in pancreatic cancer cell lines (Mia PaCa-2) stably expressing MDA-7.
FIG. 51. Induction of apoptosis in pancreatic cancer cell lines (FM516 or BxPC-3) stably expressing MDA-7.

prostate carcinoma cells = experiment: ROS production (DCF fluorescence, flow cytometry); format: cell-based, human; settings: treated with NSC656240 or As2O3
Experimental: as §1

RT2 cells = experiment: MTT assay with kinase inhibitors; format: cell-based, rat
Experimental: Data are the means±SEM of 3 experiments # p<0.05 less than control treated cells, * p<0.05 less than corresponding value in cells not infected with Ad-mda-7. Panel C. […] Data are the means±SEM of 3 separate experiments. […] Data are the means±SEM of 3 separate experiments. […] Cells were incubated with vehicle or SP600125 (10 μM) 30 min prior to irradiation and growth determined via MTT assay 4 days after irradiation (±SEM, n=4).
The MTT test is based on the enzymatic reduction of the tetrazolium salt MTT in living, metabolically active cells. […] Twenty-four hours after infection/protein treatment, cells were treated with kinase inhibitor drugs and then irradiated. […] The plates were read on a Dynatech MR600 Microplate Reader at 540 nm. All data were normalized relative to the control, non-treated unirradiated cells of the corresponding cell type.

[9] = test system: normal immortal P69 prostate epithelial cells; experiment: MTT viability assay; format: cell-based, human; settings: PK11195 50 μM
Experimental: as §1, §2
MTT Viability Assays. […] The optical density from the plates was read on a BioRad Microplate Reader Model 550 at 595 nm.

CC1=C(/C=C/C(C)=C/C=C/C(C)=C/C(=O)Nc2ccc(O)cc2)C(C)(C)CCC1 [4-HPR, N-(4-hydroxyphenyl) retinamide]
effect of 4-HPR on toxic effects of MDA-7 expression (SKOV3 cells): potentiated the toxic effects of MDA-7 expression

CO[C@H](C/C=C\C=C\CC/C=C/C[C@H](C)/C=C/C(=C\C(=O)O)CC(=O)O)/C(C)=C\C=C(/C)C(=O)O [BA, bongkrekic acid]
effect of MPT inhibitor on cell death of Ad.mda-7-infected cells ([1]; CsA (200 nM), BA (50 μM) pretreatment 2 h): prevented cell death
effect on Ad.mda-7-induced decline in ΔΨm [2]: abrogated the decline in ΔΨm

O=C1c2ccsc2C(=O)c2sc(CO)cc21 [NSC656240]
K-ras protein expression ([3]; alone or in combination with Ad.mda-7): does not down-regulate K-ras protein expression
MDA-7 protein expression and secretion, combined treatment with Ad.mda-7 ([3]; wt and mutated K-ras pancreatic cancer cell lines): leads to MDA-7 protein expression and secretion
cell death, combinational treatment with Ad.mda-7 [4]: caused death of these cells irrespective of their K-ras status
effect of ROS-producing agent on cell death of Ad.mda-7-infected cells ([1]; As2O3 10 μM, NSC656240 400 nM, 48 h): potentiated cell death
apoptosis, combination treatment with Ad.mda-7 [5]: caused apoptosis in pancreatic carcinoma cells independently of their K-ras status
growth, combinational treatment with Ad.mda-7 [6]: does not affect growth of normal cells
ROS production, combined treatment with Ad.mda-7 [7]: Caused ROS overproduction
apoptosis and cell death [8]: caused apoptosis and cell death
ROS levels (prostate carcinoma cells): ROS levels increased proportionally

COc1cccc(-c2cc(=O)c3ccccc3o2)c1N [PD98059]
effect of combined MEK1/2 and PI3K inhibition on proliferation of Ad.mda-7 infected cells (RT2 cells; 10 μm PD98059 + 5 μm LY294002): significant additional reduction in proliferation
effect of single kinase inhibitor on anti-proliferative effects of Ad.mda-7 (RT2 cells; 10 μm PD98059 or 5 μm LY294002): neither MEK1/2 nor PI3K enhanced the anti-proliferative effects

CCC(C)N(C)C(=O)c1cc2ccccc2c(-c2ccccc2Cl)n1 (stereo not drawn) [PK11195]
effect of PK11195 on Ad.mda-7-induced killing ([1]; PK11195 50 μM): enhanced Ad.mda-7-induced killing
effect of PK11195 on MPT, annexin V staining and killing [9]: without inducing any of these changes in P69 cells

O=S(=O)(O)c1cc(O)c(O)c(S(=O)(=O)O)c1 [Tiron]
effect of antioxidant on cell death promoting activity of Ad.mda-7 ([1]; NAC 5 mM, Tiron 1 mM, 48 h): abrogated

COC(=O)C[C@H](NC(=O)[C@H](C)NC(=O)[C@@H](NC(=O)OCc1ccccc1)C(C)C)C(=O)CF [z-VAD.fmk] (Cbz-Val-Ala-Asp(OMe)-CH2F)
effect of z-VAD.fmk on cell death ([1]; z-VAD.fmk 50 μM): inhibited cell death

Reference: patent US20060110376A1, “MDA-7 and free radicals in the treatment of cancer” (priority 2002, published 2006)
